According to patent US9609868B2, “Alkoximino-substituted anthranilic acid diamides as pesticides” (BAYER CROPSCIENCE AKTIENGESELLSCHAFT, priority 2013, dated 2017):

Tests used:
[1] = log P by HPLC on reversed-phase column (C18), EEC directive 79/831 Annex V.A8; type: physicochemical; conditions: HPLC reversed-phase C18, 43° C., data refer to the E isomer
Description: The log P values reported in the tables and Preparation Examples above were determined in accordance with EEC directive 79/831 Annex V.A8 by HPLC (High Performance Liquid Chromatography) using a reversed-phase column (C18). Temperature 43° C. The calibration is effected with unbranched alkan-2-ones (having 3 to 16 carbon atoms), for which the log P values are known.

Myzus persicae = Myzus persicae - spray test (MYZUPE); type: in vivo; conditions: application rate 100 g/ha, Chinese cabbage leaf disks
Description: Myzus persicae—Spray Test (MYZUPE)
Solvent: 78 parts by weight of acetone • • 1.5 parts by weight of dimethylformamide
(§1) Emulsifier: 0.5 parts by weight of alkylaryl polyglycol ether
(§2) To produce a suitable active compound preparation, 1 part by weight of active compound is mixed with the stated amounts of solvent and emulsifier, and the concentrate is diluted with emulsifier-containing water to the desired concentration.
Disks of Chinese cabbage leaves (Brassica pekinensis) infested by all stages of the green peach aphid (Myzus persicae) are sprayed with an active compound preparation of the desired concentration.
After the desired period of time, the efficacy in % is determined. 100% means that all the aphids have been killed; 0% means that none of the aphids have been killed.

Spodoptera frugiperda = Spodoptera frugiperda - spray test (SPODFR); type: in vivo; conditions: application rate 100 g/ha, maize leaf disks
Description: Spodoptera frugiperda—Spray Test (SPODFR)
(§3) Solvent: 78.0 parts by weight of acetone • • 1.5 parts by weight of dimethylformamide
as §1, §2
Leaf disks of maize (Zea mays) are sprayed with an active compound preparation of the desired concentration and, after drying, populated with caterpillars of the armyworm (Spodoptera frugiperda).
After the desired period of time, the efficacy in % is determined. 100% means that all the caterpillars have been killed; 0% means that no caterpillars have been killed.

Phaedon cochleariae = Phaedon cochleariae - spray test (PHAECO); type: in vivo; conditions: application rate 100 g/ha, Chinese cabbage leaf disks
Description: Phaedon cochleariae—Spray Test (PHAECO)
as §3, §1, §2
After the desired period of time, the efficacy in % is determined. 100% means that all the beetle larvae have been killed; 0% means that no beetle larvae have been killed.

SMILES	log p ([1]; Table C)	efficacy (aphids killed) (Myzus persicae) [%]	efficacy (caterpillars killed) (Spodoptera frugiperda) [%]	log p ([1]; Table A)	log p ([1]; Table B)	efficacy (beetle larvae killed) (Phaedon cochleariae) [%]
C#CCNC(=O)c1cc(C=NOC)cc(C)c1NC(=O)c1cc(OCC(F)F)nn1-c1ncccc1Cl [C-52]	2.78	90	100	–	–	–
CCOC(=O)NN(C)C(=O)c1cc(C=NOC)cc(C)c1NC(=O)c1cc(Br)nn1-c1ncccc1Cl [A-10]	–	90	100	2.97	–	–
CON=Cc1cc(C)c(NC(=O)c2cc(OC)nn2-c2ncccc2Cl)c(C(=O)NC2COC2)c1 (mixture of isomers) [B-10]	–	100	100	–	2.04	100
COCC(C)NC(=O)c1cc(C=NOC)cc(C)c1NC(=O)c1cc(C(F)F)nn1-c1ncccc1Cl (stereo not shown) [C-60]	2.84	100	100	–	–	100
CON=Cc1cc(C)c(NC(=O)c2cc(OC)nn2-c2ncccc2Cl)c(C(=O)NC(C)C2CC2)c1 (stereo not shown) [C-25]	3.02	100	100	–	–	100
CON=Cc1cc(C)c(NC(=O)c2cc(C(F)(F)F)nn2-c2ncccc2Cl)c(C(=O)NC2CS(=O)(=O)C2)c1 (mixture of isomers) [B-04]	–	90	100	–	2.78	–
CON=Cc1cc(C)c(NC(=O)c2cc(CF)nn2-c2ncccc2Cl)c(C(=O)NC2COC2)c1 (mixture of isomers) [B-12]	–	–	–	–	2.04	100
CON=Cc1cc(C)c(NC(=O)c2cc(Br)nn2-c2ncccc2Cl)c(C(=O)NNC(=O)Oc2ccccc2)c1 [A-15]	–	90	100	3.03	–	–
CON=Cc1cc(C)c(NC(=O)c2cc(OCC(F)F)nn2-c2ncccc2Cl)c(C(=O)N(C)C)c1 [C-38]	2.61	–	100	–	–	–
CON=Cc1cc(C)c(NC(=O)c2cc(Br)nn2-c2ncccc2Cl)c(C(=O)N(C)NC(C)=O)c1 [A-14]	–	90	100	2.31	–	–
CON=Cc1cc(C)c(NC(=O)c2cc(OC(C)C)nn2-c2ncccc2Cl)c(C(=O)NC2CC2)c1 [C-06]	2.98	–	100	–	–	100
CON=Cc1cc(C)c(NC(=O)c2cc(OCC(F)F)nn2-c2ncccc2Cl)c(C(=O)NC(C)C2CC2)c1 (stereo not shown) [C-18]	3.39	90	100	–	–	–
CON=Cc1cc(C)c(NC(=O)c2cc(OCC(F)F)nn2-c2ncccc2Cl)c(C(=O)NC2COC2)c1 (mixture of isomers) [B-09]	–	100	100	–	2.44	–
CON=Cc1cc(C)c(NC(=O)c2cc(OCC(F)F)nn2-c2ncccc2Cl)c(C(=O)NNC(=O)OC)c1 (mixture of isomers) [A-37]	–	100	100	2.37	–	–
CON=Cc1cc(C)c(NC(=O)c2cc(OC)nn2-c2ncccc2Cl)c(C(=O)NC2CC2)c1 (mixture of isomers) [C-30]	2.97	–	100	–	–	100
CON=Cc1cc(C)c(NC(=O)c2cc(C(F)F)nn2-c2ncccc2Cl)c(C(=O)N(C)C)c1 [C-61]	2.47	–	100	–	–	–
COCCOC(=O)NN(C)C(=O)c1cc(C=NOC)cc(C)c1NC(=O)c1cc(Br)nn1-c1ncccc1Cl [A-13]	–	90	100	2.72	–	–

SMILES	log p ([1]; Table C)	efficacy (aphids killed) (Myzus persicae) [%]	efficacy (caterpillars killed) (Spodoptera frugiperda) [%]	log p ([1]; Table A)	log p ([1]; Table B)	efficacy (beetle larvae killed) (Phaedon cochleariae) [%]
CON=Cc1cc(C)c(NC(=O)c2cc(Br)nn2-c2ncccc2Cl)c(C(=O)NNC(=O)OC(C)C)c1 [A-06]	–	–	100	2.88	–	100
CON=Cc1cc(C)c(NC(=O)c2cc(C(F)(F)F)nn2-c2ncccc2Cl)c(C(=O)N(C)NS(C)(=O)=O)c1 [A-31]	–	–	100	2.88	–	100
CON=Cc1cc(C)c(NC(=O)c2cc(Br)nn2-c2ncccc2Cl)c(C(=O)N(NC(C)=O)C(C)=O)c1 [A-11]	–	100	100	2.67	–	–
CON=Cc1cc(C)c(NC(=O)c2cc(Br)nn2-c2ncccc2Cl)c(C(=O)NNS(C)(=O)=O)c1 [A-09]	–	90	100	2.30	–	–
COCC(C)NC(=O)c1cc(C=NOC)cc(C)c1NC(=O)c1cc(OCC(F)F)nn1-c1ncccc1Cl (stereo not shown) [C-39]	2.93	100	100	–	–	–
C=CCOC(=O)NN(C)C(=O)c1cc(C=NOC)cc(C)c1NC(=O)c1cc(C(F)(F)F)nn1-c1ncccc1Cl [A-28]	–	–	100	3.41	–	–
CON=Cc1cc(C)c(NC(=O)c2cc(Br)nn2-c2ncccc2Cl)c(C(=O)N(NS(C)(=O)=O)S(C)(=O)=O)c1 [A-12]	–	–	100	2.99	–	–
CON=Cc1cc(C)c(NC(=O)c2cc(C(F)(F)F)nn2-c2ncccc2Cl)c(C(=O)NNC(=O)OC(C)C)c1 [A-18]	–	–	100	3.17	–	100
CON=Cc1cc(C)c(NC(=O)c2cc(C(F)(F)F)nn2-c2ncccc2Cl)c(C(=O)N(C)NC(=O)OC(C)C)c1 [A-25]	–	–	100	3.57	–	100
CNC(=O)c1cc(C=NOC)cc(C)c1NC(=O)c1cc(OC(C)C)nn1-c1ncccc1Cl [C-65]	2.75	–	100	–	–	100
CON=Cc1cc(C)c(NC(=O)c2cc(OC)nn2-c2ncccc2Cl)c(C(=O)NC(C)C2CC2)c1 (mixture of isomers) [C-31]	3.66	–	100	–	–	100
CON=Cc1cc(C)c(NC(=O)c2cc(Br)nn2-c2ncccc2Cl)c(C(=O)N(C)NC(=O)OC)c1 [A-03]	–	–	100	2.74	–	100
CON=Cc1cc(C)c(NC(=O)c2cc(Br)nn2-c2ncccc2Cl)c(C(=O)N(C)NC(=O)Oc2ccccc2)c1 [A-05]	–	100	100	3.46	–	–
COCC(C)NC(=O)c1cc(C=NOC)cc(C)c1NC(=O)c1cc(CF)nn1-c1ncccc1Cl (stereo not shown) [C-54]	2.47	90	100	–	–	–
CON=Cc1cc(C)c(NC(=O)c2cc(OC)nn2-c2ncccc2Cl)c(C(=O)NNC(=O)OC)c1 (mixture of isomers) [A-40]	–	90	100	2.45	–	–
CON=Cc1cc(C)c(NC(=O)c2cc(OC)nn2-c2ncccc2Cl)c(C(=O)NNC(=O)OC)c1 (mixture of isomers) [A-38]	–	–	100	2.00	–	100
